Reference: ChEMBL document CHEMBL2413072, “Synthesis and in vitro anticancer studies of novel C-2 arylidene congeners of lantadenes” (2013)

Assays:
Format in all cases: functional
CCRF-CEM = assay: Growth inhibition of human CCRF-CEM cells assessed as cell growth at 10^-6 M by sulforhodamine B assay; details: read-out: Activity
MDA-MB-468 [1] = assay: Growth inhibition of human MDA-MB-468 cells assessed as cell growth at 10^-8 M by sulforhodamine B assay; details: read-out: Activity
SN12C [2] = assay: Growth inhibition of human SN12C cells assessed as cell growth at 10^-4 M by sulforhodamine B assay; details: read-out: Activity
SN12C [3] = assay: Growth inhibition of human SN12C cells assessed as cell growth at 10^-8 M by sulforhodamine B assay; details: read-out: Activity
OVCAR-3 = assay: Growth inhibition of human OVCAR3 cells assessed as cell growth at 10^-4 M by sulforhodamine B assay; details: read-out: Activity
SK-OV-3 = assay: Growth inhibition of human SKOV3 cells assessed as cell growth at 10^-6 M by sulforhodamine B assay; details: read-out: Activity
K562 [4] = assay: Growth inhibition of human K562 cells by sulforhodamine B assay
ACHN [5] = assay: Growth inhibition of human ACHN cells assessed as cell growth at 10^-6 M by sulforhodamine B assay; details: read-out: Activity
NCI-H23 = assay: Growth inhibition of human NCI-H23 cells assessed as cell growth at 10^-6 M by sulforhodamine B assay; details: read-out: Activity
NCI-H522 = assay: Growth inhibition of human NCI-H522 cells assessed as cell growth at 10^-7 M by sulforhodamine B assay; details: read-out: Activity
UACC-257 [6] = assay: Growth inhibition of human UACC257 cells assessed as cell growth at 10^-6 M by sulforhodamine B assay; details: read-out: Activity
MDA-MB-468 [7] = assay: Growth inhibition of human MDA-MB-468 cells assessed as cell growth at 10^-6 M by sulforhodamine B assay; details: read-out: Activity
Malme-3M = assay: Growth inhibition of human MALME-3M cells assessed as cell growth at 10^-8 M by sulforhodamine B assay; details: read-out: Activity
NCI-H226 = assay: Growth inhibition of human NCI-H226 cells by sulforhodamine B assay
UACC-62 [8] = assay: Growth inhibition of human UACC62 cells by sulforhodamine B assay
SK-MEL-28 [9] = assay: Growth inhibition of human SK-MEL-28 cells assessed as cell growth at 10^-8 M by sulforhodamine B assay; details: read-out: Activity
RXF 393 = assay: Growth inhibition of human RXF393 cells assessed as cell growth at 10^-6 M by sulforhodamine B assay; details: read-out: Activity
M14 = assay: Growth inhibition of human M14 cells assessed as cell growth at 10^-4 M by sulforhodamine B assay; details: read-out: Activity
SK-MEL-2 = assay: Growth inhibition of human SK-MEL-2 cells by sulforhodamine B assay
ACHN [10] = assay: Growth inhibition of human ACHN cells by sulforhodamine B assay
MDA-MB-231 [11] = assay: Growth inhibition of human MDA-MB-231 cells assessed as cell growth at 10^-6 M by sulforhodamine B assay; details: read-out: Activity
SR [12] = assay: Growth inhibition of human SR cells assessed as cell growth at 10^-4 M by sulforhodamine B assay; details: read-out: Activity
HT-29 = assay: Growth inhibition of human HT-29 cells assessed as cell growth at 10^-6 M by sulforhodamine B assay; details: read-out: Activity
HCT-116 = assay: Growth inhibition of human HCT116 cells by sulforhodamine B assay
K562 [13] = assay: Growth inhibition of human K562 cells assessed as cell growth at 10^-4 M by sulforhodamine B assay; details: read-out: Activity
BT-549 = assay: Growth inhibition of human BT549 cells assessed as cell growth at 10^-8 M by sulforhodamine B assay; details: read-out: Activity
MDA-MB-231 [14] = assay: Growth inhibition of human MDA-MB-231 cells assessed as cell growth at 10^-4 M by sulforhodamine B assay; details: read-out: Activity
U-251 = assay: Growth inhibition of human U251 cells assessed as cell growth at 10^-7 M by sulforhodamine B assay; details: read-out: Activity
NCI-H322M = assay: Growth inhibition of human NCI-H322M cells assessed as cell growth at 10^-8 M by sulforhodamine B assay; details: read-out: Activity
UACC-257 [15] = assay: Growth inhibition of human UACC257 cells assessed as cell growth at 10^-4 M by sulforhodamine B assay; details: read-out: Activity
HL-60(TB) = assay: Growth inhibition of human HL-60(TB) cells assessed as cell growth at 10^-7 M by sulforhodamine B assay; details: read-out: Activity
[16] = Growth inhibition of human NCI-ADR-RES cells assessed as cell growth at 10^-6 M by sulforhodamine B assay; details: read-out: Activity
COLO 205 = assay: Growth inhibition of human COLO205 cells assessed as cell growth at 10^-8 M by sulforhodamine B assay; details: read-out: Activity
HOP-92 = assay: Growth inhibition of human HOP92 cells assessed as cell growth at 10^-7 M by sulforhodamine B assay; details: read-out: Activity
UACC-257 [17] = assay: Growth inhibition of human UACC257 cells assessed as cell growth at 10^-8 M by sulforhodamine B assay; details: read-out: Activity
UACC-62 [18] = assay: Growth inhibition of human UACC62 cells assessed as cell growth at 10^-7 M by sulforhodamine B assay; details: read-out: Activity
SK-MEL-28 [19] = assay: Growth inhibition of human SK-MEL-28 cells assessed as cell growth at 10^-4 M by sulforhodamine B assay; details: read-out: Activity
KM12 = assay: Growth inhibition of human KM12 cells by sulforhodamine B assay
A498 = assay: Growth inhibition of human A498 cells assessed as cell growth at 10^-4 M by sulforhodamine B assay; details: read-out: Activity
[20] = Growth inhibition of human Hs 578T cells assessed as cell growth at 10^-7 M by sulforhodamine B assay; details: read-out: Activity
SR [21] = assay: Growth inhibition of human SR cells assessed as cell growth at 10^-6 M by sulforhodamine B assay; details: read-out: Activity
[22] = read-out: LC50 (the source's name)
[23] = read-out: pLC50 (the source's name) (converted)

Compound: C/C=C(/C)C(=O)O[C@@H]1CC(C)(C)C[C@H]2C3=CC[C@@H]4[C@@]5(C)CCC(=O)C(C)(C)[C@@H]5CC[C@@]4(C)[C@]3(C)CC[C@@]12C(=O)O [LANTADENE A]
- growth at 1 µM (CCRF-CEM): 92%
- growth at 0.01 µM (MDA-MB-468 [1]): 95%
- growth at 100 µM (SN12C [2]): 15%
- growth at 0.01 µM (SN12C [3]): 97%
- growth at 100 µM (OVCAR-3): 23%
- growth at 1 µM (SK-OV-3): 103%
- GI50 (K562 [4]; read-out: GI50): 4.72 µM
- LC50 (K562 [4]; read-out: LC50): > 100 µM
- TGI (K562 [4]; read-out: TGI): > 100 µM
- GI50 (K562 [4]; read-out: pGI50 (converted)): 4.68 µM
- LC50 (K562 [4]; read-out: pLC50 (converted)): > 100 µM
- TGI (K562 [4]; read-out: pTGI (converted)): > 100 µM
- growth at 1 µM (ACHN [5]): 92%
- growth at 1 µM (NCI-H23): 97%
- growth at 0.1 µM (NCI-H522): 97%
- growth at 1 µM (UACC-257 [6]): 91%
- growth at 1 µM (MDA-MB-468 [7]): 74%
- growth at 0.01 µM (Malme-3M): 98%
- GI50 (NCI-H226; read-out: GI50): 4.71 µM
- LC50 (NCI-H226; read-out: LC50): > 100 µM
- TGI (NCI-H226; read-out: TGI): > 100 µM
- GI50 (NCI-H226; read-out: pGI50 (converted)): 4.68 µM
- LC50 (NCI-H226; read-out: pLC50 (converted)): > 100 µM
- TGI (NCI-H226; read-out: pTGI (converted)): > 100 µM
- GI50 (UACC-62 [8]; read-out: GI50): 1.73 µM
- CC50 (UACC-62 [8]; [22]): 43 µM
- TGI (UACC-62 [8]; read-out: TGI): 6.56 µM
- GI50 (UACC-62 [8]; read-out: pGI50 (converted)): 1.74 µM
- CC50 (UACC-62 [8]; [23]): 42.7 µM
- TGI (UACC-62 [8]; read-out: pTGI (converted)): 6.61 µM
- growth at 0.01 µM (SK-MEL-28 [9]): 97%
- growth at 1 µM (RXF 393): 81%
- growth at 100 µM (M14): 23%
- GI50 (SK-MEL-2; read-out: GI50): 3.07 µM
- CC50 (SK-MEL-2; [22]): > 100 µM
- TGI (SK-MEL-2; read-out: TGI): 8.07 µM
- GI50 (SK-MEL-2; read-out: pGI50 (converted)): 3.09 µM
- CC50 (SK-MEL-2; [23]): > 100 µM
- TGI (SK-MEL-2; read-out: pTGI (converted)): 8.13 µM
- GI50 (ACHN [10]; read-out: GI50): 4.94 µM
- CC50 (ACHN [10]; [22]): > 100 µM
- TGI (ACHN [10]; read-out: TGI): > 100 µM
- GI50 (ACHN [10]; read-out: pGI50 (converted)): 4.9 µM
- CC50 (ACHN [10]; [23]): > 100 µM
- TGI (ACHN [10]; read-out: pTGI (converted)): > 100 µM
- growth at 1 µM (MDA-MB-231 [11]): 92%
- growth at 100 µM (SR [12]): 12%
- growth at 1 µM (HT-29): 85%
- GI50 (HCT-116; read-out: GI50): 3.62 µM
- LC50 (HCT-116; read-out: LC50): > 100 µM
- TGI (HCT-116; read-out: TGI): > 100 µM
- GI50 (HCT-116; read-out: pGI50 (converted)): 3.63 µM
- LC50 (HCT-116; read-out: pLC50 (converted)): > 100 µM
- TGI (HCT-116; read-out: pTGI (converted)): > 100 µM
- growth at 100 µM (K562 [13]): 28%
- growth at 0.01 µM (BT-549): 99%
- growth at 100 µM (MDA-MB-231 [14]): -26%
- growth at 0.1 µM (U-251): 94%
- growth at 0.01 µM (NCI-H322M): 99%
- growth at 100 µM (UACC-257 [15]): 21%
- growth at 0.1 µM (HL-60(TB)): 96%
- growth at 1 µM [16]: 97%
- growth at 0.01 µM (COLO 205): 106%
- growth at 0.1 µM (HOP-92): 71%
- growth at 0.01 µM (UACC-257 [17]): 96%
- growth at 0.1 µM (UACC-62 [18]): 85%
- growth at 100 µM (SK-MEL-28 [19]): 42%
- GI50 (KM12; read-out: GI50): 3.52 µM
- LC50 (50% net cell kill) (KM12; read-out: LC50): > 100 µM
- TGI (KM12; read-out: TGI): > 100 µM
- GI50 (KM12; read-out: pGI50 (converted)): 3.55 µM
- LC50 (50% net cell kill) (KM12; read-out: pLC50 (converted)): > 100 µM
- TGI (KM12; read-out: pTGI (converted)): > 100 µM
- growth at 100 µM (A498): -20%
- growth at 0.1 µM [20]: 93%
- growth at 1 µM (SR [21]): 80%
